Assay results from PubChem BioAssay (NCI).
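Compound exposure: 48 hours, 5 concentrations, 96-well plates. At the GI50, growth is halved. TGI marks complete inhibition of growth.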

Columns and labels:
Assay in all cases: DTP human tumour cell line panel, 48 h
[1] = test system: A498 renal
[2] = test system: A549 NSCLC
[3] = test system: ACHN renal
[4] = test system: CCRF-CEM leukemia
[5] = test system: COLO 205 colon
[6] = test system: EKVX NSCLC
[7] = test system: HCC-2998 colon
[8] = test system: HCT-116 colon
[9] = test system: HCT-15 colon
[10] = test system: HOP-92 NSCLC
[11] = test system: HT29 colon
[12] = test system: IGROV1 ovarian
[13] = test system: K-562 leukemia
[14] = test system: KM12 colon
[15] = test system: KM20L2 colon
[16] = test system: LOX IMVI melanoma
[17] = test system: M14 melanoma
[18] = test system: MALME-3M melanoma
[19] = test system: MOLT-4 leukemia
[20] = test system: NCI-H23 lung
[21] = test system: NCI-H460 lung
[22] = test system: NCI-H522 lung
[23] = test system: OVCAR-3 ovarian
[24] = test system: OVCAR-5 ovarian
[25] = test system: OVCAR-8 ovarian
[26] = test system: RXF 393 renal
[27] = test system: SF-268 CNS
[28] = test system: SF-295 CNS
[29] = test system: SF-539 CNS
[30] = test system: SK-MEL-2 melanoma
[31] = test system: SK-MEL-28 melanoma
[32] = test system: SK-MEL-5 melanoma
[33] = test system: SK-OV-3 ovarian
[34] = test system: SN12C renal
[35] = test system: SNB-19 CNS
[36] = test system: SNB-75 CNS
[37] = test system: SR leukemia
[38] = test system: SW-620 colon
[39] = test system: TK-10 renal
[40] = test system: U251 CNS
[41] = test system: UACC-257 melanoma
[42] = test system: UACC-62 melanoma
[43] = test system: UO-31 renal
[44] = test system: 786-0 renal
[45] = test system: BT-549 breast
[46] = test system: CAKI-1 renal
[47] = test system: DU-145 prostate
[48] = test system: HL-60(TB) leukemia
[49] = test system: HOP-62 NSCLC
[50] = test system: HS 578T breast
[51] = test system: MCF7 breast
[52] = test system: MDA-MB-231 breast
[53] = test system: MDA-MB-435
[54] = test system: MDA-N
[55] = test system: NCI-H226 lung
[56] = test system: NCI/ADR-RES ovarian
[57] = test system: OVCAR-4 ovarian
[58] = test system: PC-3 prostate
[59] = test system: RPMI-8226 leukemia
[60] = test system: T-47D breast

In the case of O=C(N/N=C/c1cc(Cl)cc(Cl)c1O)c1ccccc1O, the TGI [1] is reported as 40.6 µM, the GI50 [2] is reported as 1.45 µM and the TGI [2] is reported as 15.8 µM. The TGI [3] was 5.57 µM, the TGI [4] was greater than 100 µM and the GI50 [5] was 11.2 µM. It also gave a TGI [5] greater than 100 µM, a GI50 [6] of 1.71 µM and a TGI [6] greater than 100 µM. It also gave a TGI [7] of 14.6 µM, a GI50 [8] of 2.48 µM and a TGI [8] of 14.5 µM. The TGI [9] was 15.7 µM, the GI50 [10] was 3.69 µM and the TGI [10] was 19.7 µM. It also gave a TGI [11] of 26.1 µM, a TGI [12] of 19.2 µM and a TGI [13] greater than 100 µM. For the same compound, the GI50 [14] was 3.72 µM, the TGI [14] was 34.7 µM and the GI50 [15] was 4.85 µM. The TGI [16] was 24.9 µM, the TGI [17] was 4.07 µM and the GI50 [18] was 2.8 µM. The TGI [18] was 11.6 µM, the GI50 [19] was 0.375 µM and the TGI [19] was greater than 100 µM. The GI50 [20] was 2.69 µM, the TGI [21] was 18.8 µM and the TGI [22] was 3.18 µM. For the same compound, the TGI [23] was 1.65 µM, the TGI [24] was 7.82 µM and the TGI [25] was 13.9 µM. The TGI [26] was 4.97 µM, the TGI [27] was 30.8 µM and the TGI [28] was 11.3 µM. The GI50 [29] was 1.75 µM, the TGI [29] was 6.69 µM and the GI50 [30] was 1.39 µM. It also gave a TGI [30] of 6.87 µM, a TGI [31] of 25.2 µM and a TGI [32] of 5.38 µM. It also gave a TGI [33] of 15.3 µM, a TGI [34] of 23.3 µM and a TGI [35] of 43.7 µM. The TGI [36] was 22.5 µM, the TGI [37] was greater than 100 µM and the TGI [38] was 21.5 µM. It also gave a TGI [39] of 70.3 µM, a TGI [40] of 18.4 µM and a TGI [41] of 14.6 µM. It also gave a TGI [42] of 3.89 µM and a TGI [43] of 29.5 µM.
Work on CCOC(=O)c1ccc(C(=O)C(C(C)=O)C(=O)OC(C)(C)C)[nH]1 (configuration not stated) yielded a TGI [44] greater than 100 µM, a TGI [1] greater than 100 µM and a TGI [2] greater than 100 µM. It also gave a TGI [3] greater than 100 µM, a TGI [45] greater than 100 µM and a TGI [46] greater than 100 µM. It also gave a TGI [5] greater than 100 µM, a TGI [47] greater than 100 µM and a TGI [6] greater than 100 µM. For the same compound, the TGI [7] was greater than 100 µM, the TGI [8] was greater than 100 µM and the TGI [9] was greater than 100 µM. The TGI [48] was greater than 100 µM, the TGI [49] was greater than 100 µM and the TGI [50] was greater than 100 µM. For the same compound, the TGI [11] was greater than 100 µM, the TGI [12] was greater than 100 µM and the TGI [13] was greater than 100 µM. The TGI [14] was greater than 100 µM, the TGI [16] was greater than 100 µM and the TGI [17] was greater than 100 µM. The TGI [18] was greater than 100 µM, the TGI [51] was greater than 100 µM and the TGI [52] was greater than 100 µM. The TGI [53] was greater than 100 µM, the TGI [54] was greater than 100 µM and the TGI [19] was greater than 100 µM. It also gave a TGI [55] greater than 100 µM, a TGI [20] greater than 100 µM and a TGI [21] greater than 100 µM. The TGI [22] was greater than 100 µM, the TGI [56] was greater than 100 µM and the TGI [23] was greater than 100 µM. The TGI [57] was greater than 100 µM, the TGI [24] was greater than 100 µM and the TGI [25] was greater than 100 µM. The TGI [58] was greater than 100 µM, the TGI [59] was greater than 100 µM and the TGI [26] was greater than 100 µM. It also gave a TGI [27] greater than 100 µM, a TGI [28] greater than 100 µM and a TGI [30] greater than 100 µM. The TGI [31] was greater than 100 µM, the TGI [32] was greater than 100 µM and the TGI [33] was greater than 100 µM. For the same compound, the TGI [34] was greater than 100 µM, the TGI [35] was greater than 100 µM and the TGI [36] was greater than 100 µM. For the same compound, the TGI [37] was greater than 100 µM, the TGI [38] was greater than 100 µM and the TGI [60] was greater than 100 µM. It also gave a TGI [40] greater than 100 µM, a TGI [42] greater than 100 µM and a TGI [43] greater than 100 µM.
In the case of Cc1ccc2c(=O)cc(-c3ccc(-c4ccccc4)s3)[nH]c2n1, the TGI [44] is reported as greater than 100 µM, the TGI [1] is reported as 72.7 µM and the TGI [2] is reported as greater than 100 µM. The TGI [3] was greater than 100 µM, the TGI [45] was greater than 100 µM and the TGI [46] was greater than 100 µM. It also gave a TGI [4] greater than 100 µM, a TGI [5] greater than 100 µM and a TGI [47] greater than 100 µM. For the same compound, the TGI [6] was greater than 81.4 µM, the TGI [8] was greater than 100 µM and the TGI [9] was greater than 100 µM. For the same compound, the TGI [48] was greater than 100 µM, the TGI [49] was greater than 76.8 µM and the TGI [10] was greater than 85.6 µM. It also gave a TGI [50] greater than 72.6 µM, a TGI [11] greater than 100 µM and a TGI [12] greater than 100 µM. For the same compound, the TGI [13] was greater than 100 µM, the TGI [14] was greater than 100 µM and the TGI [16] was greater than 100 µM. For the same compound, the TGI [17] was greater than 100 µM, the TGI [18] was greater than 81.1 µM and the TGI [51] was greater than 100 µM. The TGI [52] was greater than 100 µM, the TGI [53] was greater than 100 µM and the TGI [54] was greater than 100 µM. It also gave a TGI [19] greater than 78.9 µM, a TGI [55] greater than 100 µM and a TGI [20] greater than 100 µM. For the same compound, the TGI [21] was greater than 100 µM, the TGI [22] was greater than 56.7 µM and the TGI [56] was greater than 100 µM. The TGI [23] was greater than 100 µM, the TGI [57] was greater than 100 µM and the TGI [24] was greater than 100 µM. It also gave a TGI [25] greater than 100 µM, a TGI [58] of 85.5 µM and a TGI [59] greater than 100 µM. The TGI [26] was greater than 100 µM, the TGI [27] was greater than 100 µM and the TGI [28] was 99.5 µM. The TGI [29] was 36.6 µM, the TGI [30] was greater than 100 µM and the TGI [31] was greater than 100 µM. For the same compound, the TGI [32] was greater than 39.7 µM, the TGI [33] was greater than 100 µM and the TGI [34] was greater than 100 µM. It also gave a TGI [35] greater than 100 µM, a TGI [36] greater than 100 µM and a TGI [37] of 8.35 µM. For the same compound, the TGI [38] was greater than 100 µM, the TGI [60] was greater than 100 µM and the TGI [39] was greater than 91.4 µM. For the same compound, the TGI [40] was greater than 100 µM, the TGI [41] was greater than 100 µM and the TGI [42] was greater than 100 µM. It also gave a TGI [43] of 0.219 µM.
Compound C#CCOCC12C=CC(O1)C1C(=O)OCC12 (configuration not stated) has a TGI [44] greater than 100 µM, a TGI [1] greater than 100 µM and a TGI [2] greater than 100 µM. For the same compound, the TGI [3] was greater than 100 µM, the TGI [45] was greater than 100 µM and the TGI [46] was greater than 100 µM. It also gave a TGI [4] greater than 100 µM, a TGI [5] greater than 100 µM and a TGI [47] greater than 100 µM. The TGI [6] was greater than 100 µM, the TGI [7] was greater than 100 µM and the TGI [8] was greater than 100 µM. The TGI [9] was greater than 100 µM, the TGI [48] was greater than 100 µM and the TGI [49] was greater than 100 µM. The TGI [50] was greater than 100 µM, the TGI [11] was greater than 100 µM and the TGI [12] was greater than 100 µM. The TGI [13] was greater than 100 µM, the TGI [14] was greater than 100 µM and the TGI [16] was greater than 100 µM. The TGI [17] was greater than 100 µM, the TGI [18] was greater than 100 µM and the TGI [51] was greater than 100 µM. The TGI [52] was greater than 100 µM, the TGI [53] was greater than 100 µM and the TGI [54] was greater than 100 µM. The TGI [19] was greater than 100 µM, the TGI [55] was greater than 100 µM and the TGI [20] was greater than 100 µM. For the same compound, the TGI [21] was greater than 100 µM, the TGI [22] was greater than 100 µM and the TGI [56] was greater than 100 µM. For the same compound, the TGI [23] was greater than 100 µM, the TGI [57] was greater than 100 µM and the TGI [24] was greater than 100 µM. It also gave a TGI [25] greater than 100 µM, a TGI [58] greater than 100 µM and a TGI [59] greater than 100 µM. It also gave a TGI [26] greater than 100 µM, a TGI [27] greater than 100 µM and a TGI [28] greater than 100 µM. It also gave a TGI [29] greater than 100 µM, a TGI [31] greater than 100 µM and a TGI [32] greater than 100 µM. It also gave a TGI [33] greater than 100 µM, a TGI [34] greater than 100 µM and a TGI [35] greater than 100 µM. The TGI [36] was greater than 100 µM, the TGI [37] was greater than 100 µM and the TGI [38] was greater than 100 µM. For the same compound, the TGI [60] was greater than 100 µM, the TGI [39] was greater than 100 µM and the TGI [40] was greater than 100 µM. For the same compound, the TGI [41] was greater than 100 µM, the TGI [42] was greater than 100 µM and the TGI [43] was greater than 100 µM.
